Results on 28 compounds are retold here after patent publication US6492416B1, “4,5-diaryl-3(2H)-furanone derivatives as cyclooxygenase-2 inhibitors” (Pacific Corporation, priority 1999, dated 2002).

≈ marks a conversion by molar mass, not a printed value.

In general, melting point refers to the temperature, or range, at which the solid turns liquid.

The target of one data set is T1, COX-1 (Mus musculus, UniProt P22437).
T1 sequence (P22437 27-602): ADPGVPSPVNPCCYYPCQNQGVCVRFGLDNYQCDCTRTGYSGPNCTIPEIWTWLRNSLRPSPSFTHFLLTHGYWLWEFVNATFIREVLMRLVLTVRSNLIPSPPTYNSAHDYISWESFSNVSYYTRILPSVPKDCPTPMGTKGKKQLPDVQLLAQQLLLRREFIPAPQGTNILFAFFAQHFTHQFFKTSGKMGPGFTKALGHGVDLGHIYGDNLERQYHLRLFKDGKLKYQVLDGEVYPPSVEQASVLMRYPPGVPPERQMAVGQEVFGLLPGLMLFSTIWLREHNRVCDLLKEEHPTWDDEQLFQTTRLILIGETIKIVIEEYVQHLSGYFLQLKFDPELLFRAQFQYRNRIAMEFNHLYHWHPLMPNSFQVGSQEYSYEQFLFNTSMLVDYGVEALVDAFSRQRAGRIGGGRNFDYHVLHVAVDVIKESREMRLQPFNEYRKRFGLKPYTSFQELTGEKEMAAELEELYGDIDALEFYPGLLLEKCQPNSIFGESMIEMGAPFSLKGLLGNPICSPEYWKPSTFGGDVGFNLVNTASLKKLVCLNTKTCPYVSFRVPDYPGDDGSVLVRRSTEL
Description: Evaluation of COX-1 activity: PGE2 formation in mouse peritoneal macrophages without aspirin and LPS treatment. Format: cell-based. The conditions noted are these: for IC50: read-out: IC50, μg/ml COX-1 (converted). Summed up:
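Peritoneal macrophages from C57BL/6 mice, without aspirin or LPS treatment, were plated at 1×10^6 cells/ml and fixed 2 h at 37 °C. Cells were preincubated 10 min, then given 10 μM arachidonic acid plus compound for 10 min; PGE2 was measured by RIA or EIA. IC50 came from 4–5 concentrations.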

In the next data set the target is T2, COX-2 (Mus musculus, UniProt Q05769).
T2 sequence (Q05769 18-604): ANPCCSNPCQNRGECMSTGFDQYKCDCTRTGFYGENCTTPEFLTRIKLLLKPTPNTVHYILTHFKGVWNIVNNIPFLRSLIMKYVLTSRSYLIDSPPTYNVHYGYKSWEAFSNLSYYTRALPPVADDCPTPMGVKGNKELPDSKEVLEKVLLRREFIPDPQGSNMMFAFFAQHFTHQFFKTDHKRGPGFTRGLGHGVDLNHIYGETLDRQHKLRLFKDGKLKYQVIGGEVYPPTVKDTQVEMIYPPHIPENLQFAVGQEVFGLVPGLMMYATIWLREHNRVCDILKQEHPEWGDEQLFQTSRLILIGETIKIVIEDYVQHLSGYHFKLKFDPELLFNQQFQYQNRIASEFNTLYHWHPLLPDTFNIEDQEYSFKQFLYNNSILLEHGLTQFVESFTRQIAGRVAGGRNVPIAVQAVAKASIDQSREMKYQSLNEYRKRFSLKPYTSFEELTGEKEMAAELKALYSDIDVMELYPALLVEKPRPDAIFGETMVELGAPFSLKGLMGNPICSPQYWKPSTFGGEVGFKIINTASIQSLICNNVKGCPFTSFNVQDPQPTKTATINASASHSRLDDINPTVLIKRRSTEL
Briefly: Evaluation of COX-2 activity: PGE2 formation in aspirin-treated, LPS-stimulated mouse peritoneal macrophages. Format: cell-based. The conditions noted are these: for IC50: read-out: IC50, μg/ml COX-2 (converted). Summed up: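 C57BL/6 peritoneal macrophages treated with 500 μM aspirin to block COX-1, adhered, then stimulated with 10 μg/ml LPS for 16 h at 37 °C to induce COX-2.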

For the compound `CC1(C)OC(c2ccc(S(C)(=O)=O)cc2)=C(c2ccccc2O)C1=O` [Example 105], the melting point lay within 182 to 183 °C. The “IC50, μg/ml COX-1” value against COX-1 came out at 50 µg/mL (≈ 140 µM). The “IC50, μg/ml COX-2” value at COX-2 is 0.03 µg/mL (≈ 0.0837 µM).
In turn, `CC1(C)OC(c2ccc(S(N)(=O)=O)c(Cl)c2)=C(c2ccccc2)C1=O` [Example 367, 5-{4-(Aminosulfonyl)-3-chlorophenyl}-2,2-dimethyl-4-phenyl-3(2H)-furanone] yielded a melting point of 193 to 194 °C. Moreover, on COX-1, the “IC50, μg/ml COX-1” value was 8 µg/mL (≈ 21.2 µM). For the same compound, at COX-2, the “IC50, μg/ml COX-2” value worked out at 0.06 µg/mL (≈ 0.159 µM).
`CC1(C)OC(c2ccc(S(N)(=O)=O)c(F)c2)=C(c2cccc(Cl)c2)C1=O` [Example 305] registered a melting point of 164 to 165 °C. Further, on COX-1, the “IC50, μg/ml COX-1” value is 0.3 µg/mL (≈ 0.758 µM). For the same compound, the “IC50, μg/ml COX-2” value against COX-2 stood at 0.003 µg/mL (≈ 0.00758 µM).
In turn, `CC1(C)OC(c2ccc(S(N)(=O)=O)c(Br)c2)=C(c2ccccc2)C1=O` [Example 351, 5-{4-(Aminosulfonyl)-3-bromophenyl}-2,2-dimethyl-4-phenyl-3(2H)-furanone] registered a melting point of 128 to 132 °C. Moreover, the “IC50, μg/ml COX-1” value against COX-1 was 300 µg/mL (≈ 710 µM). For the same compound, at COX-2, the “IC50, μg/ml COX-2” value turned out to be 0.9 µg/mL (≈ 2.13 µM).
For `CCC1(CC)OC(c2ccc(S(C)(=O)=O)cc2)=C(c2ccc(F)c(Cl)c2)C1=O` [Example 254], the melting point fell in the range of 173 to 174 °C. In addition, the “IC50, μg/ml COX-1” value against COX-1 was 3 µg/mL (≈ 7.09 µM). The “IC50, μg/ml COX-2” value at COX-2 stood at 0.03 µg/mL (≈ 0.0709 µM).
With `CSc1ccc(C2=C(c3cc(F)cc(F)c3)C(=O)C(C)(C)O2)cc1Br` [Example 340], the melting point lay within 115 to 116 °C. The “IC50, μg/ml COX-1” value against COX-1 stood at 30 µg/mL (≈ 70.5 µM). Further, the “IC50, μg/ml COX-2” value against COX-2 was 10 µg/mL (≈ 23.5 µM).
For `CC1(C)OC(c2ccc(S(N)(=O)=O)c(Cl)c2)=C(c2cccc(Cl)c2)C1=O` [Example 368], in that order: 162 to 163 °C, 7 µg/mL (≈ 17 µM) and 0.02 µg/mL (≈ 0.0485 µM).
The compound `CC1(C)OC(c2ccc(S(N)(=O)=O)cc2)=C(c2cc(Cl)cc(Cl)c2)C1=O` [Example 149] gave a melting point of 209 to 210 °C. Besides, the “IC50, μg/ml COX-1” value on COX-1 amounted to 1.01 µg/mL (≈ 2.45 µM). Besides, the “IC50, μg/ml COX-2” value against COX-2 was 0.0087 µg/mL (≈ 0.0211 µM).
`CC1(C)OC(c2ccc(S(C)(=O)=O)cc2F)=C(c2ccccc2)C1=O` [Example 321]: the melting point was 175 to 176 °C. Besides, the “IC50, μg/ml COX-1” value against COX-1 came out at 20 µg/mL (≈ 55.5 µM). In addition, the “IC50, μg/ml COX-2” value against COX-2 was determined as 0.03 µg/mL (≈ 0.0832 µM).
For `CC1(C)OC(c2ccc(S(N)(=O)=O)cc2F)=C(c2ccccc2)C1=O` [Example 332, 5-{4-(Aminosulfonyl)-2-fluorophenyl}-2,2-dimethyl-4-phenyl-3(2H)-furanone], in that order: 79 to 81 °C, 5 µg/mL (≈ 13.8 µM) and 0.03 µg/mL (≈ 0.083 µM).
`CCC1(C)OC(c2ccc(S(C)(=O)=O)cc2)=C(c2ccccc2F)C1=O` (stereo not drawn) [Example 188] returned a melting point of 108 to 109 °C. Besides, at COX-1, the IC50 is 80.1 µM. Also, the IC50 at COX-2 was 0.801 µM.
Take `CCC1(CC)OC(c2ccc(S(C)(=O)=O)cc2)=C(c2ccc(C)cc2)C1=O` [Example 245]: the melting point is 96 to 97 °C. In addition, the “IC50, μg/ml COX-1” value on COX-1 is 3 µg/mL (≈ 7.8 µM). Also, the “IC50, μg/ml COX-2” value at COX-2 came to 0.03 µg/mL (≈ 0.078 µM).
For `CC1(C)OC(c2ccc(S(C)(=O)=O)cc2)=C(c2cc(F)ccc2F)C1=O` [Example 103], in that order: 141 to 142 °C, 20 µg/mL (≈ 52.9 µM) and 0.03 µg/mL (≈ 0.0793 µM).
On the same counts, the results for `CC1(C)OC(c2ccc(S(C)(=O)=O)cc2F)=C(c2cccc(Cl)c2)C1=O` [Example 322] are 139 to 140 °C, 3 µg/mL (≈ 7.6 µM) and 0.02 µg/mL (≈ 0.0507 µM).
For `CC1(C)OC(c2ccc(S(C)(=O)=O)cc2F)=C(c2ccc(F)cc2)C1=O` [Example 324], in that order: 150 to 152 °C, 3 µg/mL (≈ 7.93 µM) and 0.03 µg/mL (≈ 0.0793 µM).
Take `CCC1(C)OC(c2ccc(S(N)(=O)=O)cc2)=C(c2ccc(C(C)=O)cc2)C1=O` (stereo not drawn) [Example 45, 4-(4-Acetylphenyl)-5-{4-(aminosulfonyl)phenyl}-2-ethyl-2-methyl-3(2H)-furanone]: the melting point was in the range of 154 to 155 °C. Moreover, the “IC50, μg/ml COX-1” value at COX-1 was found to be 1.07 µg/mL (≈ 2.68 µM). In addition, on COX-2, the “IC50, μg/ml COX-2” value worked out at 0.01 µg/mL (≈ 0.025 µM).
Turning to `CC1(C)OC(c2ccc(S(C)(=O)=O)c(F)c2)=C(c2cccc(Cl)c2)C1=S` [Example 385, 4-(3-Chlorophenyl)-2,2-dimethyl-5-{3-fluoro-4-(methylsulfonyl)phenyl}-(2H)-furan-3-thione], the melting point was 105 to 106 °C. Besides, the “IC50, μg/ml COX-1” value against COX-1 came out at 0.05 µg/mL (≈ 0.122 µM). In addition, the “IC50, μg/ml COX-2” value on COX-2 is 0.03 µg/mL (≈ 0.073 µM).
On the same counts, the results for `CC1(C)OC(c2ccc(S(C)(=O)=O)cc2F)=C(c2cc(F)ccc2F)C1=O` [Example 325] are 150 to 151 °C, 200 µg/mL (≈ 505 µM) and 0.05 µg/mL (≈ 0.126 µM).
For `CC1(C)OC(c2ccc(S(N)(=O)=O)c(Cl)c2)=C(c2cc(F)cc(F)c2)C1=O` [Example 371], in that order: 173 to 174 °C, 200 µg/mL (≈ 483 µM) and 0.02 µg/mL (≈ 0.0483 µM).
The compound `CS(=O)(=O)c1ccc(C2=C(c3cc(F)cc(F)c3)C(=O)C3(CCCC3)O2)cc1` [Example 256] came in with a melting point of 127 to 128 °C. Also, the “IC50, μg/ml COX-1” value on COX-1 turned out to be 5 µg/mL (≈ 12.4 µM). The “IC50, μg/ml COX-2” value at COX-2 is 0.03 µg/mL (≈ 0.0742 µM).
In turn, `CCCc1ccc(C2=C(c3ccc(S(C)(=O)=O)cc3)OC(C)(C)C2=O)cc1` [Example 96] came in with a melting point of 99 to 100 °C. Further, the “IC50, μg/ml COX-1” value against COX-1 worked out at 3 µg/mL (≈ 7.8 µM). The “IC50, μg/ml COX-2” value against COX-2 was 0.02 µg/mL (≈ 0.052 µM).
On the same counts, the results for `CCC1(C)OC(c2ccc(S(N)(=O)=O)cc2)=C(c2cccc(OC)c2)C1=O` (stereo not drawn) [Example 236] are 69 to 70 °C, 10.7 µg/mL (≈ 27.6 µM) and 0.0097 µg/mL (≈ 0.025 µM).
On the same counts, the results for `Cc1cc(C2=C(c3cccc(F)c3)C(=O)C(C)(C)O2)ccc1S(C)(=O)=O` [Example 378, 2,2-Dimethyl-4-(3-fluorophenyl)-5-{3-methyl-4-(methylsulfonyl)phenyl}-3(2H)-furanone] are 138 to 139 °C, 3 µg/mL (≈ 8.01 µM) and 0.03 µg/mL (≈ 0.0801 µM).
The compound `COc1cccc(C2=C(c3ccc(S(N)(=O)=O)cc3)OC(C)(C)C2=O)c1` [Example 135] registered a melting point of 259 to 260 °C. Also, the “IC50, μg/ml COX-1” value against COX-1 is >10 µg/mL. Besides, the “IC50, μg/ml COX-2” value against COX-2 stood at 0.055 µg/mL (≈ 0.147 µM).
`C[S+]([O-])c1ccc(C2=C(c3ccccc3)C(=O)C(C)(C)O2)cc1F` (stereo not drawn) [Example 291, 2,2-dimethyl-5-{3-fluoro-4-(methylsulfinyl)phenyl}-4-phenyl-3(2H)-furanone] returned a melting point of 149 to 150 °C. At COX-1, the “IC50, μg/ml COX-1” value was 3 µg/mL (≈ 8.71 µM). Besides, on COX-2, the “IC50, μg/ml COX-2” value turned out to be 0.2 µg/mL (≈ 0.581 µM).
Compound `CC1(C)OC(c2ccc(S(C)(=O)=O)cc2)=C(c2cccc([N+](=O)[O-])c2)C1=O` [Example 6, 2,2-Dimethyl-5-{4-(methylsulfonyl)phenyl}-4-(3-nitrophenyl)-3(2H)-furanone] registered a melting point of 158 to 159 °C. In addition, at COX-1, the “IC50, μg/ml COX-1” value amounted to 5 µg/mL (≈ 12.9 µM). Also, the “IC50, μg/ml COX-2” value against COX-2 stood at 0.05 µg/mL (≈ 0.129 µM).
For `CC1(C)OC(c2ccc(S(C)(=O)=O)cc2)=C(c2ccc(-c3ccccc3)cc2)C1=O` [Example 77], in that order: 150 to 153 °C, 5 µg/mL (≈ 11.9 µM) and 0.003 µg/mL (≈ 0.00717 µM).
In turn, `CCC1(C)OC(c2ccc(S(C)(=O)=O)cc2)=C(c2ccc(OC)c(F)c2)C1=O` (stereo not drawn) [Example 214] showed a melting point of 158 to 160 °C. Also, the IC50 at COX-1 was 7.42 µM. Besides, on COX-2, the IC50 is 0.0742 µM.
